Experimental data taken from patent publication US20260184669A1, “LIPID COMPOUND AND COMPOSITION FOR DELIVERY OF ACTIVE SUBSTANCE” (KOREA RESEARCH INSTIUTE OF BIOSCIENCE AND BIOTECHNOLOGY, priority 2022, published 2026).
Like-named read-outs stand apart in the source and are kept apart here.

Tests used:
[1] = Size, polydispersity index and surface charge of mRNA-LNP (Malvern Zetasizer Nano ZS90); assay type: physicochemical; details: for PDI / size (nm) Number: mRNA-LNP made with the ionizable lipid at its optimal formulation (Table 2); for size (nm) Number: diluted with PBS to 1 μg/mL mRNA; for Zeta (mV): surface charge of mRNA-LNP made with the ionizable lipid at its optimal formulation (Table 2)
Procedure, shortened: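 Dynamic/electrophoretic light scattering of LNPs diluted in PBS to a final mRNA concentration of 1 μg/mL. Readouts were particle size, PDI and surface charge.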

[2] = mRNA encapsulation efficiency (Quant-IT RiboGreen RNA assay); assay type: physicochemical; details: mRNA encapsulation efficiency of mRNA-LNP made with the ionizable lipid; average of two measurements
Procedure, shortened: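 LNP samples read with RiboGreen reagent in TE buffer with or without 2% Triton X-100 (37 °C, 10 min) to release encapsulated mRNA. Fluorescence at λex 480/λem 520 nm; EE % calculated from the two readings, averaged over two independent measurements.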

[3] = tested on: female C57BL/6 mice; experiment: Protein expression efficiency of fLuc mRNA-LNPs after intramuscular injection (IVIS whole-body luminescence); assay type: in vivo; details: for Total flux 1 hour / Total flux 3 hours / Total flux 6 hours / Total flux 48 hours / Total flux 72 hours / Total flux: fLuc mRNA-LNP, intramuscular injection, luminescence at injection site, mice; for Total flux 1 hour: 1 hour after administration; for Total flux 3 hours: 3 hours after administration; for Total flux 6 hours: 6 hours after administration; for Total flux 48 hours: 48 hours after administration; for Total flux 72 hours: 72 hours after administration; for Total flux: after administration
Procedure, shortened: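 Female C57BL/6 mice (6-10 weeks, n≥4) got intramuscular fLuc mRNA-LNPs at 0.1-0.5 mg/kg mRNA. Injection-site luminescence was imaged under isoflurane at 1-72 h, 10 min after i.p. D-luciferin (200 μL, 15 mg/mL). Expression at 3 h was taken relative to MC3 or SM-102 LNPs.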

[4] = In vivo toxicity evaluation, serum biochemical analysis (AST, ALT, ALP, BUN, creatinine); details: serum of mice after injection of fLuc mRNA-LNP, FIG. 9
Protocol: Toxicity induced by fLuc mRNA-LNPs prepared using various ionizable lipids according to the method of Example 27 was evaluated through serum biochemical analysis following […]. injection into mice.
Specifically, 50-100 μL of serum was collected each mouse at 24 and 48 hours after intravenous injection using the retro-orbital bleeding method. The serum biochemical analysis was performed using Hitachi 7150 Chemistry Analyzer, measuring indicators of liver function—aspartate aminotransferase (AST), alanine aminotransferase (ALT), alkaline phosphatase (ALP)- and indicators of kidney function—blood urea nitrogen (BUN) and creatinine.

[5] = Stability of mRNA-LNPs according to storage temperature and duration; assay type: physicochemical; details: for Normalized EE % D-7 / PDI D-7 / Size (nm) D-7: day 7; for Normalized EE % D-30 / PDI D-30 / Size (nm) D-30: day 30
Protocol: Stability of fLuc mRNA-LNPs produced using various ionizable lipids according to the method of Example 27, was assessed by storing the LNPs at 4° C. and 25° C. At 1, 7, and 30 days post-manufacture, the size, PDI, and encapsulation efficiency (EE) of each mRNA-LNPs samples were measured using the methods described in Experimental Examples 2 and 3.

[6] = tested on: CCL2 mRNA level in HEK-293T cells
[7] = tested on: CCL3 mRNA level in HEK-293T cells
[8] = tested on: IL-1β mRNA level in HEK-293T cells
[9] = tested on: IL-6 mRNA level in HEK-293T cells
[10] = Apparent pKa of mRNA-LNP by TNS binding assay; assay type: physicochemical; details: apparent pKa of mRNA-LNP made with the ionizable lipid
Protocol: The apparent pKa of the mRNA-LNPs prepared according to Example 27 was determined by analysis using 6-(p-toluidino)-2-naphthalenesulfonic acid sodium salt (TNS; Sigma-Aldrich, USA).
However, as the pH decreases, the proportion of positively charged ionizable lipids increases, allowing electrostatic interactions with TNS. […] When the pH of the solution increases and the ionizable lipids become neutralized, TNS can no longer engage in electrostatic interactions. Consequently, TNS loses its lipophilic character, exits the hydrophobic domain, and its fluorescence is quenched. Based on this principle, the pKa of LNPs can be measured by plotting the change in TNS fluorescence intensity in response to variations in the surrounding pH as an S-shaped curve, and calculating the […] of the inflection point. […]
Specifically, a master buffer was prepared containing 10 mM sodium phosphate, 10 mM sodium borate, 10 mM sodium citrate, and 150 mM sodium chloride (NaCl). […] After gently mixing the contents of each well, the fluorescence intensity was measured using a multiplate reader (Cary Eclipse, Agilent Technologies, USA) at an excitation wavelength of λex 330 nm and an emission wavelength of λem 435 nm.

[11] = fLuc mRNA-LNP stored at 4° C., day 1
[12] = fLuc mRNA-LNP stored at 25° C., day 1

In the case of `CCCCCCCCCCCOC(=O)CCCCCN(CCCCCCCC(=O)OC(CCCCCCCC)CCCCCCCC)CC(O)CCCCNC(=O)c1cc[nH]c1` (stereo not shown) [Compound 17, Heptadecan-9-yl 8-((2-hydroxy-6-(1H-pyrrole-3-carboxamido)hexyl)(6-oxo-6-(undecyloxy)hexyl)amino)octanoate], the PDI [1] is reported as 0.100, the “size (nm) Number” value [1] is reported as 151 nm and the “Zeta (mV)” value [1] is reported as −6.80 mV. The “EE (%)” value [2] was 94%, the “protein expression compared to the control group (SM-102)” value ([3]; 3 hours post intramuscular injection, in words) was “significantly higher protein expression” and the “Total flux 1 hour” value [3] was 6.53E+07. For the same compound, the “Total flux 3 hours” value [3] was 2.23E+08, the “Total flux 6 hours” value [3] was 1.02E+08 and the “Total flux 48 hours” value [3] was 4.80E+06. The “Total flux 72 hours” value [3] was 4.21E+06, the Total flux [3] was 1.00E+07 and the “Fold increase in total flux at 3 h, MC3” value ([3]; relative to control LNP formulated with MC3, 3 hours after intramuscular injection) was 18.09. The “Fold increase in total flux at 3 h, SM-102” value ([3]; relative to control LNP formulated with SM-102, 3 hours after intramuscular injection) was 1.99, the “ALP level compared to control groups (PBS and SM-102)” value [4] was “similar” and the “AST level compared to control groups (PBS and SM-102)” value [4] was “lower”. For the same compound, the “BUN level compared to control groups (PBS and SM-102)” value [4] was “similar”, the “Normalized EE % D-1” value [5, 11] was 94.0% and the “PDI D-1” value [5, 11] was 0.100. For the same compound, the “Size (nm) D-1” value [5, 11] was 151.2 nm, the “Normalized EE % D-7” value ([5]; fLuc mRNA-LNP stored at 4° C.) was 91.3% and the “PDI D-7” value ([5]; fLuc mRNA-LNP stored at 4° C.) was 0.098. The “Size (nm) D-7” value ([5]; fLuc mRNA-LNP stored at 4° C.) was 133.8 nm, the “Normalized EE % D-30” value ([5]; fLuc mRNA-LNP stored at 4° C.) was 89.8% and the “PDI D-30” value ([5]; fLuc mRNA-LNP stored at 4° C.) was 0.081. For the same compound, the “Size (nm) D-30” value ([5]; fLuc mRNA-LNP stored at 4° C.) was 130.7 nm, the “Normalized EE % D-1” value [5, 12] was 94.0% and the “Size (nm) D-1” value [5, 12] was 151.2 nm. The “Normalized EE % D-7” value ([5]; fLuc mRNA-LNP stored at 25° C.) was 90.2%, the “PDI D-7” value ([5]; fLuc mRNA-LNP stored at 25° C.) was 0.114 and the “Size (nm) D-7” value ([5]; fLuc mRNA-LNP stored at 25° C.) was 134.2 nm. For the same compound, the “Normalized EE % D-30” value ([5]; fLuc mRNA-LNP stored at 25° C.) was 88.6%, the “PDI D-30” value ([5]; fLuc mRNA-LNP stored at 25° C.) was 0.128 and the “Size (nm) D-30” value ([5]; fLuc mRNA-LNP stored at 25° C.) was 128.1 nm. For the same compound, the “CCL2 Average” value ([6]; human) was 0.65, the “CCL3 Average” value ([7]; human) was 1.10 and the “IL-1β Average” value ([8]; human) was 0.70. For the same compound, the “IL-6 Average” value ([9]; human) was 0.94.

With `CCCCCCCCCCCOC(=O)CCCCCN(CCO)CCCCCCCC(=O)OC(CCCCCCCC)CCCCCCCC` [SM-102, reference compound] the PKa [10] was 6.48, the PDI [1] was 0.140 and the “size (nm) Number” value [1] was 101 nm. The “Zeta (mV)” value [1] was −2.99 mV, the “EE (%)” value [2] was 94% and the “Total flux 1 hour” value [3] was 1.48E+07. The “Total flux 3 hours” value [3] was 1.12E+08, the “Total flux 6 hours” value [3] was 1.82E+08 and the “Total flux 48 hours” value [3] was 7.43E+06. For the same compound, the “Total flux 72 hours” value [3] was 2.86E+06, the Total flux [3] was 2.27E+07 and the “CCL2 Average” value [6] was 0.83. For the same compound, the “CCL3 Average” value [7] was 2.41, the “IL-1β Average” value [8] was 1.14 and the “IL-6 Average” value [9] was 1.82.
